According to patent US9834521B2, “Choline kinase inhibitors” (ARIAD Pharmaceuticals, Inc., priority 2013, dated 2017):

Each compound was assayed against T1, truncated form of human Choline kinase α1 that includes residues 75-457 (Homo sapiens, UniProt P35790) (assay: Kinase Assay, coupled (ATP regeneration) LDH/PK assay, NADH absorbance). Conditions: not given.
T1 construct: made in house
Format: biochemical
Description: Absorbance of NADH (340 nm) was measured over 30 min using a SpectraMax M5 (Molecular Devices). Initial reaction velocity (ΔA340/Δt) was calculated and plotted as a function of inhibitor concentration in a 2-fold dilution series. IC50 values were obtained by fitting the relative velocities to a dose-response model.

T1 sequence (P35790 75-457): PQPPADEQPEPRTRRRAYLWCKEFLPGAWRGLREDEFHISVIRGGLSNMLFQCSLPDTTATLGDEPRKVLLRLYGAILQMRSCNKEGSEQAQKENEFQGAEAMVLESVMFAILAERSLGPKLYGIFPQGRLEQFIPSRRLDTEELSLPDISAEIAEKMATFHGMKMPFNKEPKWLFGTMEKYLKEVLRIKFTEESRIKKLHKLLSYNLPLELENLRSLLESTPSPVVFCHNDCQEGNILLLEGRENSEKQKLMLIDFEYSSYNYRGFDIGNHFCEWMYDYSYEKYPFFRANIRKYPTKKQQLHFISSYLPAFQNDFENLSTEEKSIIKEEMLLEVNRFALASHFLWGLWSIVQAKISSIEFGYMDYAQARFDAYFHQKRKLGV

Compound	IC50
CN1CCCN(Cc2ccc(-c3ccc(C(=O)N4CCCC4)cc3)c(C#N)c2)CC1 [Example 26, 4-((4-methyl-1,4-diazepan-1-yl)methyl)-4′-(pyrrolidine-1-carbonyl)-[1,1′-biphenyl]-2-carbonitrile]	< 2000 nM
CN1CCCN(Cc2ccc(-c3ccc(C(=O)N4CCOCC4)cc3)c(C#N)c2)CC1 [Example 36, 4-((4-methyl-1,4-diazepan-1-yl)methyl)-4′-(morpholine-4-carbonyl)-[1,1′-biphenyl]-2-carbonitrile]	< 2000 nM
CN1CCCN(Cc2ccc(-c3ccc(C(=O)N4CCCCC4)cc3)c(C#N)c2)CC1 [Example 34, 4-((4-methyl-1,4-diazepan-1-yl)methyl)-4′-(piperidine-1-carbonyl)-[1,1′-biphenyl]-2-carbonitrile]	< 500 nM
CN1CCCN(Cc2ccc(-c3ccc(CNP(C)(C)=O)cc3)c(C#N)c2)CC1 [Example 46, N-((2′-cyano-4′-((4-methyl-1,4-diazepan-1-yl)methyl)-[1,1′-biphenyl]-4-yl)methyl)-P,P-dimethylphosphinic amide]	< 500 nM

Same assay, conditions: Examples designated with an asterisk (*): version 1 of the Kinase Assay, 200 nM enzyme; read-out: IC50

Compound	IC50
CN1CCCN(Cc2ccc(-c3ccc(CC(=O)O)cc3)cc2)CC1 [Example 160, 2-(4′-((4-methyl-1,4-diazepan-1-yl)methyl)-[1,1′-biphenyl]-4-yl)acetic acid]	< 50000 nM
CN1CCCN(Cc2ccc(CN3CC[C@@H](O)C3)cc2)CC1 [Example 150, (R)-1-(4-((4-methyl-1,4-diazepan-1-yl)methyl)benzyl)pyrrolidin-3-ol]	< 50000 nM
CN1CCCN(Cc2ccc(-c3ccccn3)cc2)CC1 [Example 141, 1-methyl-4-(4-(pyridin-2-yl)benzyl)-1,4-diazepane]	< 50000 nM
C=CCN1CCN(Cc2ccc(CN3CCCN(C)CC3)cc2)CC1 [Example 146, 1-(4-((4-allylpiperazin-1-yl)methyl)benzyl)-4-methyl-1,4-diazepane]	< 50000 nM

Same assay, conditions: Examples not designated with an asterisk; footnote prints version 1 of the Kinase Assay; read-out: IC50

Compound	IC50
COc1cccc(-c2cc(C(=O)N3CCCN(C)CC3)ccc2-c2ccc(CN3CCCN(C)CC3)cc2C#N)c1 [Example 74, 3″-methoxy-4-((4-methyl-1,4-diazepan-1-yl)methyl)-4′-(4-methyl-1,4-diazepane-1-carbonyl)[1,1′:2′,1″-terphenyl]-2-carbonitrile]	< 500 nM
CN1CCCN(Cc2ccc(-c3ccc(CO)cc3)c(C#N)c2)CC1 [Example 108, 4′-(hydroxymethyl)-4-((4-methyl-1,4-diazepan-1-yl)methyl)-[1,1′-biphenyl]-2-carbonitrile]	< 500 nM
CN1CCCN(Cc2ccc(-c3ccc(C(=O)O)cc3Br)c(C#N)c2)CC1 [Example 157, 2-bromo-2′-cyano-4′-((4-methyl-1,4-diazepan-1-yl)methyl)-[1,1′-biphenyl]-4-carboxylic acid]	< 50000 nM
CN1CCCN(Cc2ccc(-c3ccc(N)c([N+](=O)[O-])c3)c(C#N)c2)CC1 [Example 101, 4′-amino-4-((4-methyl-1,4-diazepan-1-yl)methyl)-3′-nitro-[1,1′-biphenyl]-2-carbonitrile]	< 500 nM
Cc1cc(-c2ccc(CN3CCCN(C)CC3)cc2)ccc1CN1CCCN(C)CC1 [Example 54, 4,4′-((3-methyl-[1,1′-biphenyl]-4,4′-diyl)bis(methylene))bis(1-methyl-1,4-diazepane)]	< 500 nM
CN1CCCN(Cc2ccc(-c3ccc(C(=O)N4CCCN(C)CC4)cc3-c3ccccc3)c(C#N)c2)CC1 [Example 65, 4-((4-methyl-1,4-diazepan-1-yl)methyl)-4′-(4-methyl-1,4-diazepane-1-carbonyl)-[1,1′:2′,1″-terphenyl]-2-carbonitrile]	< 500 nM
CC(=O)NCCc1ccc(-c2ccc(CN3CCCN(C)CC3)cc2C#N)cc1 [Example 95, N-(2-(2′-cyano-4′-((4-methyl-1,4-diazepan-1-yl)methyl)-[1,1′-biphenyl]-4-yl)ethyl)acetamide]	< 500 nM
CN1CCCN(Cc2ccc(-c3ccc(-c4nnn[nH]4)cc3)cc2)CC1 [Example 129, 1-((4′-(1H-tetrazol-5-yl)-[1,1′-biphenyl]-4-yl)methyl)-4-methyl-1,4-diazepane]	< 50000 nM
CN(C)Cc1ccc(-c2ccc(CN3CCCN(C)CC3)cc2C#N)cc1 [Example 12, 4′-((dimethylamino)methyl)-4-((4-methyl-1,4-diazepan-1-yl)methyl)-[1,1′-biphenyl]-2-carbonitrile]	< 500 nM
CN1CCCN(Cc2ccc(-c3ccc(-c4nnc(N)s4)cc3)cc2)CC1 [Example 116, 5-(4′-((4-methyl-1,4-diazepan-1-yl)methyl)-[1,1′-biphenyl]-4-yl)-1,3,4-thiadiazol-2-amine]	< 2000 nM
CN1CCCN(Cc2ccc(-c3ccc(C(=O)N4CCCN(C)CC4)cc3-c3ccc(C(=O)N(C)C)cc3)c(C#N)c2)CC1 [Example 76]	< 2000 nM
Cc1cc(CN2CCCN(C)CC2)ccc1-c1ccc(CN2CCCN(C)CC2)cc1 [Example 49, 4,4′-((2-methyl-[1,1′-biphenyl]-4,4′-diyl)bis(methylene))bis(1-methyl-1,4-diazepane)]	< 500 nM
CN1CCCN(Cc2ccc(-c3cn[nH]c3)c(C#N)c2)CC1 [Example 112, 5-((4-methyl-1,4-diazepan-1-yl)methyl)-2-(1H-pyrazol-4-yl)benzonitrile]	< 500 nM
Cc1ccc(-c2cc(C(=O)N3CCCN(C)CC3)ccc2-c2ccc(CN3CCCN(C)CC3)cc2C#N)cc1 [Example 70, 4″-methyl-4-((4-methyl-1,4-diazepan-1-yl)methyl)-4′-(4-methyl-1,4-diazepane-1-carbonyl)-[1,1′1:2′,1″-terphenyl]-2-carbonitrile]	< 500 nM
COCCN1CCN(C(=O)c2ccc(-c3ccc(CN4CCCN(C)CC4)cc3C#N)cc2)CC1 [Example 21, 4′-(4-(2-methoxyethyl)piperazine-1-carbonyl)-4-((4-methyl-1,4-diazepan-1-yl)methyl)-[1,1′-biphenyl]-2-carbonitrile]	< 500 nM
CNC(=O)NCc1ccc(-c2ccc(CN3CCCN(C)CC3)cc2C#N)cc1 [Example 47, 1-((2′-cyano-4′-((4-methyl-1,4-diazepan-1-yl)methyl)-[1,1′-biphenyl]-4-yl)methyl)-3-methylurea]	< 500 nM
Cc1cc(-c2ccc(CN3CCCN(C)CC3)cc2C#N)cnc1N [Example 118, 2-(6-amino-5-methylpyridin-3-yl)-5-((4-methyl-1,4-diazepan-1-yl)methyl)benzonitrile]	< 2000 nM
CC(=O)Nc1ccc(-c2ccc(CN3CCCN(C)CC3)cc2C#N)cn1 [Example 102, N-(5-(2-cyano-4-((4-methyl-1,4-diazepan-1-yl)methyl)phenyl)pyridin-2-yl)acetamide]	< 500 nM
CN1CCCN(Cc2ccc(-c3ccc(C#N)cc3)c(C#N)c2)CC1 [Example 105, 4-((4-methyl-1,4-diazepan-1-yl)methyl)-[1,1′-biphenyl]-2,4′-dicarbonitrile]	< 500 nM
CN1CCCN(Cc2ccc(-c3ccc(CN4CCCN(C)CC4)c(C#N)c3)cc2)CC1 [Example 155, 4,4′-bis((4-methyl-1,4-diazepan-1-yl)methyl)-[1,1′-biphenyl]-3-carbonitrile]	< 500 nM
COCCN1CCN(Cc2ccc(-c3ccc(CN4CCCN(C)CC4)cc3C#N)cc2)CC1 [Example 3, 4′-((4-(2-methoxyethyl)piperazin-1-yl)methyl)-4-((4-methyl-1,4-diazepan-1-yl)methyl)-[1,1′-biphenyl]-2-carbonitrile]	< 500 nM
CN1CCCN(Cc2ccc(-c3ccc(C(=O)N4CCCN(C)CC4)cc3-c3ccc(CC#N)cc3)c(C#N)c2)CC1 [Example 67, 4″-(cyanomethyl)-4-((4-methyl-1,4-diazepan-1-yl)methyl)-4′-(4-methyl-1,4-diazepane-1-carbonyl)-[1,1′:2′,1″-terphenyl]-2-carbonitrile]	< 500 nM
CN1CCCN(Cc2ccc(-c3ccc(C(N)=O)cc3F)c(C#N)c2)CC1 [Example 96, 2′-cyano-2-fluoro-4′-((4-methyl-1,4-diazepan-1-yl)methyl)-[1,1′-biphenyl]-4-carboxamide]	< 500 nM
CN1CCCN(Cc2ccc(-c3ccc(CCC(=O)O)cc3)cc2)CC1 [Example 132, 3-(4′-((4-methyl-1,4-diazepan-1-yl)methyl)-[1,1′-biphenyl]-4-yl)propanoic acid]	< 50000 nM
CN1CCCN(Cc2ccc(-c3ccc(C(=O)N4CCCN(C)CC4)cc3-c3ccc(C#N)cc3)c(C#N)c2)CC1 [Example 68, 4-((4-methyl-1,4-diazepan-1-yl)methyl)-4′-(4-methyl-1,4-diazepane-1-carbonyl)-[1:1′:2′,1″-terphenyl]-2,4″-dicarbonitrile]	< 500 nM
CN1CCCN(Cc2ccc(-c3ccc(C(=O)N4CCCN(C)CC4)cc3Br)c(C#N)c2)CC1 [Example 61, 2′-bromo-4-((4-methyl-1,4-diazepan-1-yl)methyl)-4′-(4-methyl-1,4-diazepane-1-carbonyl)[1,1′-biphenyl]-2-carbonitrile]	< 500 nM
CN1CCCN(Cc2ccc(-c3ccc(C(=O)N4CCC(N5CCOCC5)CC4)cc3)cc2)CC1 [Example 39, (4′-((4-methyl-1,4-diazepan-1-yl)methyl)-[1,1′-biphenyl]-4-yl)(4-morpholinopiperidin-1-yl)methanone]	< 50000 nM
CN1CCCN(Cc2ccc(-c3ccc(C(=O)N4CCCN(C)CC4)cc3-c3ccc(S(C)(=O)=O)cc3)c(C#N)c2)CC1 [Example 75, 4-((4-methyl-1,4-diazepan-1-yl)methyl)-4′-(4-methyl-1,4-diazepane-1-carbonyl)-4″-(methylsulfonyl)-[1,1′1:2′,1″-terphenyl]-2-carbonitrile]	< 500 nM
CN1CCCN(Cc2ccc(-c3ccc(N)cc3)c(C#N)c2)CC1 [Example 113, 4′-amino-4-((4-methyl-1,4-diazepan-1-yl)methyl)-[1,1′-biphenyl]-2-carbonitrile]	< 2000 nM
